From PubChem BioAssay (NCI) come the findings set out here.

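The compound was tested at five concentrations on cells cultured in 96-well plates, with a 48-hour exposure period. At the GI50, growth is halved. TGI marks complete inhibition of growth.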

Test systems include NCI-H226 lung; CAKI-1 renal; CCRF-CEM leukemia; OVCAR-4 ovarian; SK-MEL-28 melanoma; HCT-15 colon; HCC-2998 colon; SF-268 CNS; RPMI-8226 leukemia.
What all share (experiment): growth of human tumour cells (NCI), 48 h

Take `O=C(N=Nc1c(O)[nH]c2ccccc12)c1oc2ccccc2c1CN1CCN(c2ccccc2)CC1`: the GI50 in the experiment with NCI-H226 lung is 6.68 µM; with CAKI-1 renal, 2.42 µM; in the experiment on CCRF-CEM leukemia it was 1.68 µM; with OVCAR-4 ovarian, 0.725 µM; with SK-MEL-28 melanoma, 1.54 µM; in the experiment on HCT-15 colon it was 1.64 µM. Moreover, the GI50 is 6.83 µM in the experiment on HCC-2998 colon and 1.97 µM in the experiment with SF-268 CNS. The TGI is 20.5 µM with NCI-H226 lung; 9.61 µM in the experiment with CAKI-1 renal; > 50 µM with CCRF-CEM leukemia; 1.46 µM in the experiment on OVCAR-4 ovarian; 6.34 µM with SK-MEL-28 melanoma; 10.2 µM with HCT-15 colon. Besides, the TGI is 32 µM with HCC-2998 colon and 13.8 µM with SF-268 CNS.
Take `C1COCCOCCOCCOCCOCCO1.[Cl][Sn]([Cl])([c]1ccccc1)[c]1ccccc1`: the GI50 is 11.5 µM with NCI-H226 lung; 0.478 µM with CAKI-1 renal; 12.3 µM in the experiment with OVCAR-4 ovarian; 2 µM with SK-MEL-28 melanoma; 4.14 µM with HCT-15 colon; 6.06 µM in the experiment with HCC-2998 colon. For the same compound, the figures for the GI50 in the experiment with RPMI-8226 leukemia and in the experiment on SF-268 CNS were 2.02 µM and 2.8 µM, respectively. The TGI turned out to be 27.9 µM with NCI-H226 lung; 1.75 µM in the experiment with CAKI-1 renal; 26.3 µM with OVCAR-4 ovarian; 4.19 µM with SK-MEL-28 melanoma; 13.5 µM with HCT-15 colon; 18.9 µM with HCC-2998 colon. Also, the TGI stood at 6.15 µM with RPMI-8226 leukemia and 8.65 µM with SF-268 CNS.
`CCN(CC)CCOc1ccc(/C=C2\C[C@H]3[C@H]4CC=C5C[C@@H](O)CC[C@]5(C)[C@H]4CC[C@]3(C)[C@H]2O)cc1OC`: the GI50 with NCI-H226 lung is 7.71 µM; in the experiment with CAKI-1 renal, 7.14 µM; in the experiment with SK-MEL-28 melanoma it was 7.74 µM; with HCT-15 colon, 9.19 µM; in the experiment with HCC-2998 colon, 11.6 µM; in the experiment with SF-268 CNS it was 14.9 µM. Moreover, the TGI in the experiment with NCI-H226 lung was 16 µM; in the experiment with CAKI-1 renal, 15.9 µM; with SK-MEL-28 melanoma, > 50 µM; in the experiment with HCT-15 colon, 18.5 µM; in the experiment with HCC-2998 colon it was 20.6 µM; in the experiment with SF-268 CNS, 47 µM.
Consider `Cn1cc(-c2csc(-c3cn(CCCCN4CCCCC4)c4ccc(F)cc34)n2)c2cccnc21`, for which the GI50 in the experiment on NCI-H226 lung is 1.68 µM; with OVCAR-4 ovarian it was 1.59 µM; in the experiment with HCT-15 colon, 1.7 µM; in the experiment with HCC-2998 colon, 1.59 µM; in the experiment on SF-268 CNS it was 1.68 µM. The TGI in the experiment with NCI-H226 lung turned out to be 3.38 µM; in the experiment on OVCAR-4 ovarian, 2.94 µM; in the experiment with HCT-15 colon it was 3.06 µM; in the experiment on HCC-2998 colon, 3.08 µM; with SF-268 CNS it was 3.32 µM.
With `O=C(CC1(O)C(=O)Nc2ccccc21)c1ccc(F)cc1` (stereo not given), the TGI in the experiment on NCI-H226 lung, in the experiment with CAKI-1 renal, in the experiment on OVCAR-4 ovarian, in the experiment with SK-MEL-28 melanoma, in the experiment with HCT-15 colon and with RPMI-8226 leukemia was > 100 µM throughout. The TGI in the experiment with SF-268 CNS is > 100 µM.
As to `O=C(N/C(=C\c1ccc(/C=C(\NC(=O)c2ccccc2)c2nc3cc(Cl)ccc3[nH]2)cc1)c1nc2cc(Cl)ccc2[nH]1)c1ccccc1`, the TGI was > 100 µM with NCI-H226 lung; > 100 µM in the experiment on CAKI-1 renal; > 100 µM in the experiment with CCRF-CEM leukemia; 87 µM in the experiment on OVCAR-4 ovarian; 53.8 µM in the experiment with SK-MEL-28 melanoma; 76.1 µM in the experiment on HCT-15 colon. Moreover, the TGI with RPMI-8226 leukemia came to 25.4 µM; in the experiment with SF-268 CNS, 73.5 µM.
Take `CC(=O)[CH-]C(=O)c1ccccc1.CC(=O)[CH-]C(=O)c1ccccc1.CC1(C)OCC(C2OC3OC(C)(C)OC3C2[O-])O1.CC1(C)OCC(C2OC3OC(C)(C)OC3C2[O-])O1.[Ti+4]` (stereo not given): the GI50 in the experiment with CAKI-1 renal was 29.9 µM; in the experiment on CCRF-CEM leukemia it was 3.49 µM; in the experiment on OVCAR-4 ovarian it was 20.4 µM; in the experiment on SK-MEL-28 melanoma it was 14 µM; with HCT-15 colon it was 15.4 µM; with SF-268 CNS it was 11.6 µM. Also, the TGI stood at 79.7 µM in the experiment with CAKI-1 renal; 39.8 µM in the experiment on CCRF-CEM leukemia; 68.4 µM with OVCAR-4 ovarian; 29.9 µM in the experiment on SK-MEL-28 melanoma; 46.5 µM in the experiment with HCT-15 colon; 30 µM in the experiment on SF-268 CNS.
In the case of `N.N.O=P([O-])([O-])CN(CCN(CP(=O)([O-])[O-])CP(=O)([O-])[O-])CP(=O)([O-])[O-].[Pt+2]`, the GI50 with NCI-H226 lung, in the experiment on CAKI-1 renal, in the experiment with OVCAR-4 ovarian, in the experiment with SK-MEL-28 melanoma, in the experiment on HCC-2998 colon and in the experiment on RPMI-8226 leukemia was > 100 µM throughout. In addition, in the experiment on SF-268 CNS, the GI50 is > 100 µM. The TGI in the experiment on NCI-H226 lung, in the experiment with CAKI-1 renal, in the experiment with OVCAR-4 ovarian, in the experiment with SK-MEL-28 melanoma, in the experiment on HCC-2998 colon and in the experiment on RPMI-8226 leukemia was > 100 µM throughout. Besides, the TGI with SF-268 CNS was > 100 µM.
